Laboratory results as given in patent publication US20040082018A1, “Methods for using osteocalcin” (Athersys, Inc., priority 2002, published 2004).
No end group written: not given here.

Assays:
Assay type in all cases: cell-based
CaR2 = target: T1, CaR2 (Homo sapiens, UniProt Q5T6X5); test: FLIPR assay of intracellular Ca^++ in HEK293 clone HEK-167B12-2.1 stably expressing CaR2; details: for FLIPR response (change of intracellular Ca^++ levels): initial ligand testing in the transfected cells; for effect on OC/Ca^++ activation of CaR2: OC and Ca^2+ pre-incubated with / in the presence of lead ion
T1 construct: expressed in transfected cells
T1 sequence (Q5T6X5 19-926): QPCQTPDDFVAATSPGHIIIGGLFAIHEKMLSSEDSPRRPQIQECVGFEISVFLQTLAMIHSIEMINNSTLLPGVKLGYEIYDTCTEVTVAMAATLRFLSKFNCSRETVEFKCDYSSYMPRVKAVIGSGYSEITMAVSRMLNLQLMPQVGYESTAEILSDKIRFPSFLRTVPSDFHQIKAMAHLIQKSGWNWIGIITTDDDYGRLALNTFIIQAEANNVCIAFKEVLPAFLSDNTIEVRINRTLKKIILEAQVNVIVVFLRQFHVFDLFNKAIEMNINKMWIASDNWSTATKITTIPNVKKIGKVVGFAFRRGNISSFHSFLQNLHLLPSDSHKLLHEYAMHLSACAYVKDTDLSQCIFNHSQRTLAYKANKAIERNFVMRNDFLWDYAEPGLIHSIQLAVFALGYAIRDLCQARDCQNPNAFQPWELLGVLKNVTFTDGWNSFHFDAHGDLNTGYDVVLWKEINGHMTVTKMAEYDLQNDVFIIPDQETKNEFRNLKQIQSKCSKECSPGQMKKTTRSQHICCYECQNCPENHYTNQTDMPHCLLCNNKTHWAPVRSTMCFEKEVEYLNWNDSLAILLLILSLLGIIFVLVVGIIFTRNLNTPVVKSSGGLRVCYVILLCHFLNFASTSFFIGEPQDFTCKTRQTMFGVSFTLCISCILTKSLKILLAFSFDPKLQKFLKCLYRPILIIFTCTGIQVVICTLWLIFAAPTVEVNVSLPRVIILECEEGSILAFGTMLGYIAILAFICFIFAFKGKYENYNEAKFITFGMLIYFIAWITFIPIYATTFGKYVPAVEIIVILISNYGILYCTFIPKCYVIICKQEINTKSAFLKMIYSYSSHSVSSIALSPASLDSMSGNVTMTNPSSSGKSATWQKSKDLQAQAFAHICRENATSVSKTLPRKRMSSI
Experimental: To facilitate pharmacological experimentation, CaR2 cDNA was cloned into the mammalian expression vector pcDNA 3.1 (+) Neo with or without a COOH-terminal FLAG epitope. The transgene was introduced into the HEK293 cell line and stable transfectants were identified. These clones were analyzed for CaR2 expression by qPCR and Western blotting to identify those clones that were suitable for ligand identification. The clone HEK-167B12-2.1 was chosen for further experimentation.
Based on the homology to the characterized goldfish odorant receptor 5.24, initial studies investigated the ability of 18 naturally occurring amino acids to trigger changes of intracellular Ca^++ levels in the transfected cells, as measured with a fluorescent imaging plate reader (FLIPR).
(§1) Intracellular Ca^++ was measured using a fluorometric imaging plate reader (FLIPR) [Molecular Devices]. Cells were seeded at a density of 1×10^5/well (96-well plate) or 1×10^4/well (384-well plate) in collagen coated plates and incubated overnight at 36.9° C. with 5% CO2. Medium was aspirated from the plates and replaced with equal volumes of a no wash calcium dye (Molecular Devices) and modified Hank's buffered saline solution [Ca^2+-free, Mg^2+-free] (140 mM NaCl, 5.4 mM KCl, 0.64 mM KH2PO4, 3 mM NaHCO3, 5.5 mM C6H12O6, 20 mM HEPES, 2.5 mM Caprylic acid (or 2.5 mM probenecid)). The plates were incubated for 1 hour at 36.9° C. with 5% CO2. FLIPR was used to measure changes in intracellular calcium as relative fluorescence upon activation by ligand.

parental HEK293 cells = test: FLIPR assay of intracellular Ca^++ in parental HEK293 cells that do not express CaR2
Experimental: as §1
(§2) Also, the apical side of cells lining tubules in Henle's loop in kidney and in epithelial cells lining prostate ducts are microenvironments where CaR2 would encounter higher than standard extracellular Ca^++.

CaR = target: T2, CaR (Homo sapiens, UniProt P41180); test: Ca^++ response of HEK 293 cells that express the previously characterized CaR
T2 construct: expressed in transfected cells; host or cells: HEK 293
T2 sequence (P41180 20-1078): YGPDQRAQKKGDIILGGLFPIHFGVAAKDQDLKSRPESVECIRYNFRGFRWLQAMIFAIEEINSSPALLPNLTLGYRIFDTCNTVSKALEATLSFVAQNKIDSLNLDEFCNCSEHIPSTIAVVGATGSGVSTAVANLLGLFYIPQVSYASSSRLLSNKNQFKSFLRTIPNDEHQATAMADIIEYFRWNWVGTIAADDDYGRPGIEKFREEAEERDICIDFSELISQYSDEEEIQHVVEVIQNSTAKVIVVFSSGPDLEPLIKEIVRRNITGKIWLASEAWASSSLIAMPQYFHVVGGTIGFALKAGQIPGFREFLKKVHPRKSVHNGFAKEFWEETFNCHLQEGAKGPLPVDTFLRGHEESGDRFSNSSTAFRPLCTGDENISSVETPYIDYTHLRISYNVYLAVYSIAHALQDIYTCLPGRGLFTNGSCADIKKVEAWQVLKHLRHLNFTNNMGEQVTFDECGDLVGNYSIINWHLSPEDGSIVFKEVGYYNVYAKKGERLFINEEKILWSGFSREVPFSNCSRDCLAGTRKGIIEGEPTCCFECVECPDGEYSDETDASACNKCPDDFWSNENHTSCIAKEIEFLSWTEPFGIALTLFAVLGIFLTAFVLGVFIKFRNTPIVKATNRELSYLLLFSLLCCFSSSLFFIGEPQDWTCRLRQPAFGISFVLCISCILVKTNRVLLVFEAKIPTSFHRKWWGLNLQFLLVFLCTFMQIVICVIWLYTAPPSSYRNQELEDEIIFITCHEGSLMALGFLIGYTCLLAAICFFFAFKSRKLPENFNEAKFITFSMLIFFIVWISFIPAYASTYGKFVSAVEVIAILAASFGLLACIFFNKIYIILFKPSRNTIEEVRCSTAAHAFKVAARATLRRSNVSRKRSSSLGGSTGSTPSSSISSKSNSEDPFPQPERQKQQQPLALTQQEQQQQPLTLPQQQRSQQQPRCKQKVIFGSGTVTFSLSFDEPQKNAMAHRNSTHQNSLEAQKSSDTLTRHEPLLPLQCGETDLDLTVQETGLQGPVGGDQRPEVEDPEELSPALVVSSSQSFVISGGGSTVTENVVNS
Experimental: as §1, §2

[Ca+2] [Ca^++, calcium]
activation of CaR2 (CaR2; 10 mM Ca^++): modest activation | activation of CaR2 (CaR2; 40 mM Ca^++): robustly activated | EC50 (CaR2; Ca^++ as activating ligand, clone expressing CaR2): 85 mM | calcium level causing a marked increase in fluorescence signal, hence intracellular Ca^++ (CaR2; clone expressing CaR2): > 20 mM | FLIPR response (change of intracellular Ca^++ levels) (CaR2): failed to elicit a positive FLIPR response | increase in fluorescence signal by high calcium levels (parental HEK293 cells; parental cell line, >20 mM calcium): not observed | EC50 (CaR; transfected HEK 293 cells): 4.1 mM

NCCCC(=O)O [GABA]
FLIPR response (change of intracellular Ca^++ levels) (CaR2): failed to elicit a positive FLIPR response

CN[C@H](CC(=O)O)C(=O)O [NMDA]
FLIPR response (change of intracellular Ca^++ levels) (CaR2): failed to elicit a positive FLIPR response

[Pb+2] [Pb^2+]
effect on OC/Ca^++ activation of CaR2 (CaR2): reversed | effect on OC/Ca^++ activation of CaR2 (CaR2; listed as Pb^++): blocked

osteocalcin (YLYQWLGAPVPYPDPLEPRREVCELNPDCDELADHIGFQEAYRRFYGPV; ends and bridges not checked; cysteine pairing not given here; UniProt P02818 52-100, looked up)
OC activation of CaR2 (CaR2; OC pre-incubated with 10 mM Ca^++): activates CaR2 when pre-incubated with 10 mM Ca^++ in a dose-dependent manner | effect of OC on CaR2 activation by calcium (CaR2; in the presence of osteocalcin): activated at lower calcium levels and the activation by high mM calcium was potentiated | synergistic effect of Ca^++ and osteocalcin on CaR2, dependence on pre-incubation (CaR2; pre-incubated versus both ligands added separately): only witnessed when calcium is pre-incubated with OC, but not when both ligands are added separately | synergistic effect of Ca^++ and osteocalcin (parental HEK293 cells; OC and Ca^++ added to parental HEK293 cells): not observed | synergistic effect of Ca^++ and osteocalcin (CaR; OC and Ca^++ added to HEK293 cells that express CaR): not observed
